In brackets after ≈: the same amount, converted by molar mass. Entries after “also recorded” stand apart in the source; their conditions may differ.
What was measured:
A549 cells [1] = test: MTT assay, inhibition of tumour cell growth; type: cell-based, human; conditions: mean ± s, n = 3
Experimental: (§1) The tumour cell suspension in logarithmic growth phase, containing about 5 × 10^3 cells, was taken and seeded onto a 96-well plate and gently shaken to disperse the cells evenly at the bottom of the plate. The cells were incubated in a constant temperature (37 °C) incubator for 24 h. The old medium was discarded, and 100 μL of the prepared working solution of piperidinone monocarbonyl curcumin analogues at different concentrations was added, and the cells were incubated in a constant temperature incubator for 24 h. Blank medium wells, blank cell wells, and 0.9% DMSO (highest content) wells were set up, with 6 multi-well and 3 multi-plates for each concentration. The discarded old medium was absorbed, and 100 μL of 10% 5 mg/mL MTT working solution was added to each well (operated away from light) and placed in a cell incubator for further incubation for 4 h. The old medium was discarded, and 100 μL of DMSO was added to each well and shaken in an air shaker at 100 RPM for 10 min. The absorbance of the OD value was measured at 490 nm by a multifunctional microplate analyzer. According to Formula (1), the inhibition rates of different piperidones monocarbonyl curcumin analograms on 4 tumour cells were calculated, and IC50 was calculated by GraphPad Prism 8.0:Inhibition rate (%) = (OD blank cell group − OD administration group)/OD blank cell group(1)

Hela cells = test: MTT assay, inhibition of tumour cell growth; type: cell-based, human; conditions: 24 h, mean ± s, n = 3
Experimental: as §1

HepG2 cells = test: MTT assay, inhibition of tumour cell growth; type: cell-based, human; conditions: mean ± s, n = 3
Experimental: as §1

MCF-7 cells = test: MTT assay, inhibition of tumour cell growth; type: cell-based, human; conditions: mean ± s, n = 3
Experimental: as §1

L02 cells = test: MTT assay, toxicity to human normal liver cells; type: cell-based; conditions: mean ± s, n = 3
Experimental: The cells were passaged to the fourth generation of L02 cells, and the cell suspension containing about 5 × 10^3 cells was added to each well of the 96-well plate and cultured in a cell culture incubator for 24 h. The old medium was discarded, and different concentrations of liquid medicine (6 porous and 3 plates for each concentration) were added and incubated for 24 h. The old medium was discarded, 10% of 5 mg/mL MTT working solution was added in the dark, and the cells were incubated in a cell incubator for 4 h. The old medium was discarded, 100 μL DMSO was added to each well, and 100 RPM was oscillated on an air shaker for 10 min. The OD value was measured at 490 nm with a multifunctional microplate reader. According to the OD value, the inhibition rate of different piperidone monocarbonyl curcumin analogues on L02 cells was calculated according to Formula (1), and IC50 was calculated by Graph Pad Prism 8.0.

A549 cells [2] = test: Cell wound scratch assay (migration); type: cell-based, human; conditions: 6 h; high, medium, and low concentrations
Experimental: A549 cells in logarithmic phase were digested with 0.25% trypsin and blown to single cell suspension with a dropper. The cell density was adjusted to 5 × 10^5 cells/mL. The cells were inoculated on 6-well plates, 2 mL per well, and cultured in a cell incubator at 37 °C, 5% CO2, and saturated humidity for 24 h until the gaps were basically fused. A 10 μL micro pipette tip was used to scratch vertically in a 6-well plate. After washing with PBS solution 3 times, the drug-containing medium was added, 2 mL per well, and three wells were set in each group. The culture plates were placed in a 5% CO2 incubator at 37 °C for 6 h and 24 h and observed and photographed with an inverted fluorescence microscope. The images were obtained by NIS Elements Viewer 4.2.0, and the scratch area and width were calculated. The cell migration rate was calculated by Formula (2):[Cell migration rate (%) = (0 h scratch area − scratch area at different times)/0 h scratch area × 100%](2)

A549 cells [3] = test: Cell morphology by inverted microscope; type: cell-based, human; conditions: 5 μmol/L, 24 h
Experimental: The cells were inoculated in a 6-well plate, and about 1 × 10^6 A549 cells in the logarithmic growth phase were inoculated in each well. After the cells were cultured in a constant temperature incubator for 24 h, the old medium was discarded, and five kinds of piperidone monocarbonyl curcumin analogue solution (5, 10, and 20 μmol/L), curcumin (10, 20, and 40 μmol/L), and 0.9% DMSO were added as the blank control group for 24 h, and then the cell morphology was observed by inverted microscope (200×).

[4] = system: ERK (extracellular regulated protein kinases); test: Western blot, ERK level in A549 cells; type: cell-based, human; conditions: 10, 5, 2.5 μmol/L, 24 h
Experimental: A549 cells in logarithmic growth phase were seeded in 6-well plates at 1 × 10^6 cells/mL per well. The cells were cultured overnight in an incubator. Different concentrations of drug-containing medium of 2,5-2Cl, 2Br-5Cl, 2-Cl, 2-F, benzaldehyde ([…]), curcumin (20 μmol/L), and cisplatin (30 μmol/L) were added, and the blank control […] The RIPA cell lysis buffer containing protease inhibitors was added to the Petri dish to collect the proteins of each experimental group, and the supernatant was collected as a protein sample after ultrasonic centrifugation. Protein quantification was performed by the BCA method. A total of 20 μg protein was separated by 10% SDS-PAGE, and then the protein was transferred to a PVDF membrane. The membrane was blocked with 5% skim milk for 1 h, and the corresponding primary antibody was incubated at 4 °C overnight. After washing the membrane three times with TBST, the bands were incubated with the corresponding secondary antibodies at room temperature for 1 h. After cleaning the membrane with TBST 3 times, the darkroom was developed with ECL luminescence. Using GAPDH as an internal reference, the protein bands were analyzed by ImageJ 1.8.0.

MRSA [5] = test: AGAR plate zone of inhibition test (filter paper); type: cell-based, methicillin-resistant Staphylococcus aureus; conditions: Staphylococcus aureus, 160 μmol/L, 6 mm filter paper, 16 h, mean ± s, n = 3, read-out: Diameter of Bacteriostatic Zone
Experimental: Based on the results of previous experiments, the promising compounds were selected, and the size of the inhibition zone at 160 μmol/L was determined. The specific operation was as follows: The nutrient agar medium, after high temperature sterilization, was poured into about 20 mL per 9 cm plate in an ultra-clean bench and naturally cooled and solidified. Each plate was evenly coated with 100 μL MRSA bacterial suspension. The filter paper of 6 mm diameter soaked in the drug solution was dried by flame evaporation, and four tablets were placed in parallel into each plate, cultured in a constant temperature incubator at 37 °C for 16 h, and the size of the inhibition zone was measured.

MRSA [6] = test: Broth microdilution inhibition test and MIC; type: cell-based, methicillin-resistant Staphylococcus aureus; conditions: Staphylococcus aureus, MRSA
Experimental: Then, the MIC values of 100% compounds at the maximum inhibitory concentration were obtained by the broth microdilution method. The specific experiments are as follows: First, in the 96-well plate, add 100 μL of compound working solution from column 2 to column 8, with concentrations decreasing from high to low, repeating each concentration 6 times. Add 100 μL of NB nutrient broth containing 1% DMSO to column 9, and 100 μL of blank NB nutrient broth to columns 10 and 11. Then, add 10 μL of bacterial suspension to each well from columns 2 to 10. Place the 96-well plate in a 37 °C incubator for 16 h at 100 rpm and measure the absorbance at 600 nm by microplate reader. Columns 2 to 9 represent the drug treatment group, column 10 is the negative control group, and column 11 is the blank control group. The minimum concentration that inhibits bacterial growth is the MIC value of the compound: Bacterial inhibition rate (%) = (OD administration − OD control)/(ODcontrol − OD blank) (3)

A549 cells [7] = test: Flow cytometry apoptosis (Annexin V/PI); type: cell-based, human; conditions: 24 h
Experimental: The A549 cells in logarithmic growth phase were inoculated in 6-well plates at 1 × 10^6 cells. After resting in the incubator for 24 h, the cells were treated with different concentrations of drugs. The blank control group was added with the medium with the highest concentration of DMSO. After 24 h of culture, cells were collected, washed with PBS, transferred to a flow tube, and resuspended with 100 μL of 1 × Annexin V conjugate. Add 4 μL YF4/88-Annexin N and 5 μL PI working solution. The cells were incubated in the dark at room temperature for 10 min, transferred to a flow cytometer tube, added with 200 μL of 1 × Annexin V conjugate, and immediately detected by flow cytometry.

Compound: O=C1C(=Cc2cc(Cl)ccc2Br)CNCC1=Cc1cc(Cl)ccc1Br [2Br-5Cl]
- IC50 (A549 cells [1]; 24 h): 4.75 ± 1.51 µM
- IC50 (Hela cells): 6.24 ± 2.46 µM
- IC50 (HepG2 cells; 24 h): 8.42 ± 1.99 µM
- IC50 (MCF-7 cells; 24 h): 6.36 ± 1.28 µM
- IC50 (L02 cells; 24 h): 58.2 ± 2.79 µM
- Cell migration rate vs blank control (0.9% DMSO) (A549 cells [2]): no statistical difference
- Cell morphology (A549 cells [3]): most of the cells became round and loose
- ERK protein level vs control group [4]: significantly lower; also recorded: most obvious

Compound: CC1(C)S[C@@H]2[C@H](NC(=O)Cc3ccccc3)C(=O)N2[C@H]1C(=O)O [Penicillin]
- zone of inhibition at 160 µM (MRSA [5]): 8.67 ± 0.58 mm

Compound: NC[C@H]1O[C@H](O[C@H]2[C@H](O)[C@@H](O[C@H]3O[C@H](CO)[C@@H](O)[C@H](N)[C@H]3O)[C@H](N)C[C@@H]2N)[C@H](N)C[C@@H]1O [Tobramycin, reference compound]
- inhibition at 70 µM (MRSA [6]; 70 μmol/L, read-out: Inhibition rate of MRSA): < 100%
- inhibition at 80 µM (MRSA [6]; 80 μmol/L, read-out: Inhibition rate of MRSA): 100%
- inhibition at 160 µM (MRSA [6]; 160 μmol/L): 100%
- MIC (MRSA [6]; broth microdilution, read-out: MIC): 80 µM (≈ 37.4 µg/mL)
- zone of inhibition at 160 µM (MRSA [5]): 10.7 ± 0.58 mm

Compound: O=C1C(=Cc2cc(Br)ccc2Cl)CNCC1=Cc1cc(Br)ccc1Cl [5Br-2Cl]
- IC50 (A549 cells [1]; 24 h): 14.2 ± 3.85 µM
- IC50 (Hela cells): > 40 µM
- IC50 (HepG2 cells; 24 h): 29.3 ± 2.94 µM
- IC50 (MCF-7 cells; 24 h): > 40 µM

Compound: 3,5-Bis(3,5-dibromo-benzyl)-4-piperidone [3,5-2Br]
- IC50 (A549 cells [1]; 24 h): > 40 µM
- IC50 (Hela cells): 12.8 ± 3.18 µM
- IC50 (HepG2 cells; 24 h): > 40 µM
- IC50 (MCF-7 cells; 24 h): > 40 µM

Compound: 3,5-Bis(2-bromo-benzyl)-4-piperidone
- IC50 (A549 cells [1]; 24 h): 16.6 ± 1.84 µM
- IC50 (Hela cells): 12.3 ± 2.67 µM
- IC50 (HepG2 cells; 24 h): 7.03 ± 3.24 µM
- IC50 (MCF-7 cells; 24 h): > 40 µM

Compound: O=C1C(=Cc2ccc(Cl)cc2Br)CNCC1=Cc1ccc(Cl)cc1Br [2Br-4Cl]
- IC50 (A549 cells [1]; 24 h): 18.2 ± 3.15 µM
- IC50 (Hela cells): 23.4 ± 3.34 µM
- IC50 (HepG2 cells; 24 h): 27.3 ± 2.64 µM
- IC50 (MCF-7 cells; 24 h): > 40 µM

Compound: COc1cc(/C=C/C(=O)CC(=O)/C=C/c2ccc(O)c(OC)c2)ccc1O [Curcumin]
- IC50 (A549 cells [1]; Homo sapiens, A549, 24 h): 33.5 ± 3.83 µM
- IC50 (Hela cells; Homo sapiens, HeLa): 29.2 ± 2.57 µM
- IC50 (HepG2 cells; Homo sapiens, HepG2, 24 h): 17.6 ± 3.43 µM
- IC50 (MCF-7 cells; Homo sapiens, MCF7, 24 h): 39.2 ± 2.81 µM
- IC50 (L02 cells; Homo sapiens, L02, 24 h): 30.4 ± 1.04 µM
- Proportion of normal cells (flow cytometry) (A549 cells [7]; 20 μmol/L): 84.27%

Compound: O=C1C(=Cc2cccc(Br)c2)CNCC1=Cc1cccc(Br)c1 [3-Br]
- IC50 (A549 cells [1]; 24 h): > 40 µM
- IC50 (Hela cells): > 40 µM
- IC50 (HepG2 cells; 24 h): 18.3 ± 3.44 µM
- IC50 (MCF-7 cells; 24 h): 22.5 ± 3.55 µM

Compound: O=C1C(=Cc2ccc(Cl)c(Cl)c2)CNCC1=Cc1ccc(Cl)c(Cl)c1 [3,4-2Cl, 3,5-Bis(3,4-dichlorobenzylidene)-4-piperidone]
- IC50 (A549 cells [1]; Homo sapiens, A549, 24 h): 11.9 ± 4.64 µM
- IC50 (Hela cells; Homo sapiens, HeLa): > 40 µM
- IC50 (HepG2 cells; Homo sapiens, HepG2, 24 h): > 40 µM
- IC50 (MCF-7 cells; Homo sapiens, MCF7, 24 h): > 40 µM

Compound: N.N.[Cl][Pt][Cl] [Cisplatin solution, reference compound]
- IC50 (A549 cells [1]; 24 h): 41.2 ± 3.49 µM
- IC50 (Hela cells): 59.4 ± 1.7 µM
- IC50 (HepG2 cells; 24 h): 27.7 ± 3.26 µM
- IC50 (MCF-7 cells; 24 h): 55.2 ± 4.09 µM
- IC50 (L02 cells; 24 h): 48.4 ± 3.83 µM
- Proportion of normal cells (flow cytometry) (A549 cells [7]; 30 μmol/L): 86.27%

Compound: O=C1C(=Cc2ccc(Br)cc2F)CNCC1=Cc1ccc(Br)cc1F [4Br-2F]
- IC50 (A549 cells [1]; 24 h): 20.2 ± 4.15 µM
- IC50 (Hela cells): 18.7 ± 3.66 µM
- IC50 (HepG2 cells; 24 h): 16.4 ± 1.97 µM
- IC50 (MCF-7 cells; 24 h): 28.5 ± 2.91 µM

Compound: O=C1C(=Cc2ccc(F)cc2Br)CNCC1=Cc1ccc(F)cc1Br [2Br-4F]
- IC50 (A549 cells [1]; 24 h): 21.8 ± 3.68 µM
- IC50 (Hela cells): > 40 µM
- IC50 (HepG2 cells; 24 h): 18.3 ± 4.38 µM
- IC50 (MCF-7 cells; 24 h): > 40 µM

Compound: 3,5-Bis(4-bromo-benzyl)-4-piperidinone
- IC50 (A549 cells [1]; 24 h): 15.5 ± 2.35 µM
- IC50 (Hela cells): > 40 µM
- IC50 (HepG2 cells; 24 h): 7.15 ± 4.62 µM
- IC50 (MCF-7 cells; 24 h): 19.7 ± 3.68 µM
